# Source: patent publication US20090226398A1, “ANTI-VIRAL COMPOUNDS, COMPOSITIONS, AND METHODS OF USE” (Genelabs Technologies, Inc., priority 2008, published 2009)
# Tested on: HCV replication
# Experiment: Replicon Assay (Huh-lucubineo-ET cells, luciferase readout)
# Assay type: cell-based
# Conditions: Hepatitis C virus; ET (Huh-lucubineo-ET) HCV replicon cell line; luciferase activity 48-72 hours after compound addition; 6 dilutions
# Procedure, shortened: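 Huh-lucubineo-ET cells stably carrying a firefly luciferase-ubiquitin-neo/NS3-5B ET replicon (adaptive mutations E1202G, T1280I, K1846T) were plated 24 h before compound, then treated at 5 or 50 μM or six 3-fold dilutions. Luciferase read 48-72 h later; % inhibition vs no-compound control, EC50/TC50 from Hill-equation fit.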
row,Structure (SMILES),EC50 [nM]
1,"CC(C)CCOc1ccc(-c2ccc(Cn3cc4nc(-c5cccc(F)c5F)nc-4cn3)nn2)c(C(F)(F)F)c1 [Compound 329, 2-(2,3-Difluoro-phenyl)-5-{6-[4-(3-methyl-butoxy)-2-trifluoromethyl-phenyl]-pyridazin-3-ylmethyl}-5H-imidazo[4,5-d]pyridazine]",858
2,"Fc1cccc(-c2nc3cnn(Cc4ccc(-c5ccc(OCCn6ccnc6)cc5C(F)(F)F)nn4)cc-3n2)c1F [Compound 330, 2-(2,3-Difluoro-phenyl)-5-{6-[4-(2-imidazol-1-yl-ethoxy)-2-trifluoromethyl-phenyl]-pyridazin-3-ylmethyl}-5H-imidazo[4,5-d]pyridazine]",≥ 50000
3,"Fc1cccc(-c2nc3cnn(Cc4ccc(-c5ccc(-c6ccccn6)cc5C(F)(F)F)nn4)cc-3n2)c1F [Compound 331, 2-(2,3-Difluoro-phenyl)-5-[6-(4-pyridin-2-yl-2-trifluoromethyl-phenyl)-pyridazin-3-ylmethyl]-5H-imidazo[4,5-d]pyridazine]",≥ 50000
4,"CC(C)Cc1ccc(-c2ccc(Cn3cc4nc(-c5cccc(F)c5F)nc-4cn3)nn2)c(C(F)(F)F)c1 [Compound 332, 2-(2,3-Difluoro-phenyl)-5-[6-(4-isobutyl-2-trifluoromethyl-phenyl)-pyridazin-3-ylmethyl]-5H-imidazo[4,5-d]pyridazine]",19
5,"CCCOc1ccc(-c2ccc(Cn3cc4nc(-c5cccc(F)c5F)nc-4cn3)cn2)c(C(F)(F)F)c1 [Compound 333, 2-(2,3-Difluoro-phenyl)-5-[6-(4-propoxy-2-trifluoromethyl-phenyl)-pyridin-3-ylmethyl]-5H-imidazo[4,5-d]pyridazine]",10
6,"COc1ccc(-c2ccc(Cn3cc4nc(-c5cccc(F)c5F)nc-4cn3)c(N)c2)c(C(F)(F)F)c1 [Compound 334, 4-[2-(2,3-Difluoro-phenyl)-imidazo[4,5-d]pyridazin-5-ylmethyl]-4′-methoxy-2′-trifluoromethyl-biphenyl-3-ylamine]",20
7,"Nc1cc(C(F)(F)F)ccc1-c1ccc(Cn2cc3nc(-c4cccc(F)c4F)nc-3cn2)cn1 [Compound 335, 2-{5-[2-(2,3-Difluoro-phenyl)-imidazo[4,5-d]pyridazin-5-ylmethyl]-pyridin-2-yl}-5-trifluoromethyl-phenylamine]",2390
8,"Cc1ccc(-c2ccc(C(F)(F)F)cc2C(F)(F)F)c(Cn2cc3nc(-c4cccc(F)c4F)nc-3cn2)n1 [Compound 336, 5-[3-(2,4-Bis-trifluoromethyl-phenyl)-6-methyl-pyridin-2-ylmethyl]-2-(2,3-difluoro-phenyl)-5H-imidazo[4,5-d]pyridazine]",≥ 50000
9,"Cc1nc(Cn2cc3nc(-c4cccc(F)c4F)nc-3cn2)ccc1-c1ccc(C(F)(F)F)cc1C(F)(F)F [Compound 337, 5-[5-(2,4-Bis-trifluoromethyl-phenyl)-6-methyl-pyridin-2-ylmethyl]-2-(2,3-difluoro-phenyl)-5H-imidazo[4,5-d]pyridazine]",166
10,"COc1ccc(-c2ccc(Cn3cc4nc(-c5cccc(F)c5F)nc-4cn3)c[n+]2[O-])c(C(F)(F)F)c1 [Compound 338, 2-(2,3-Difluoro-phenyl)-5-[6-(4-methoxy-2-trifluoromethyl-phenyl)-1-oxy-pyridin-3-ylmethyl]-5H-imidazo[4,5-d]pyridazine]",1300
11,"CNc1cccc(-c2nc3cnn(Cc4ccc(-c5ccc(C(F)(F)F)cc5C(F)(F)F)nc4)cc-3n2)c1F [Compound 339, (3-{5-[6-(2,4-Bis-trifluoromethyl-phenyl)-pyridin-3-ylmethyl]-5H-imidazo[4,5-d]pyridazin-2-yl}-2-fluoro-phenyl)-methyl-amine]",14300
12,"N#Cc1cc(C(F)(F)F)ccc1-c1ccc(Cn2cc3nc(-c4cccc(F)c4F)nc-3cn2)cn1 [Compound 340, 2-{5-[2-(2,3-Difluoro-phenyl)-imidazo[4,5-d]pyridazin-5-ylmethyl]-pyridin-2-yl}-5-trifluoromethyl-benzonitrile]",95
13,"Fc1cccc(-c2nc3cnn(Cc4ccc(Oc5ccc(OC(F)(F)F)cc5)nn4)cc-3n2)c1F [Compound 341, 2-(2,3-Difluoro-phenyl)-5-[6-(4-trifluoromethoxy-phenoxy)-pyridazin-3-ylmethyl]-5H-imidazo[4,5-d]pyridazine]",6030
14,"COc1ccc(-c2ccc(Cn3cc4nc(-c5cccc(F)c5F)nc-4cn3)c(C(=O)O)c2)c(C(F)(F)F)c1 [Compound 342, 4-[2-(2,3-Difluoro-phenyl)-imidazo[4,5-d]pyridazin-5-ylmethyl]-4′-methoxy-2′-trifluoromethyl-biphenyl-3-carboxylic acid]",≥ 50000
15,"Fc1cccc(-c2nc3cnn(Cc4ccc(Oc5ccc(C(F)(F)F)cc5C(F)(F)F)cc4)cc-3n2)c1F [Compound 343, 5-[4-(2,4-Bis-trifluoromethyl-phenoxy)-benzyl]-2-(2,3-difluoro-phenyl)-5H-imidazo[4,5-d]pyridazine]",26900
16,"Fc1cccc(-c2nc3cnn(Cc4ccc(-c5ccc(Br)c(C(F)(F)F)c5)cc4)cc-3n2)c1F [Compound 344, 5-(4′-Bromo-3′-trifluoromethyl-biphenyl-4-ylmethyl)-2-(2,3-difluoro-phenyl)-5H-imidazo[4,5-d]pyridazine]",320
17,"[O-][n+]1cc(Cn2cc3nc(-c4cccc(F)c4F)nc-3cn2)ccc1-c1ccc(C(F)(F)F)cc1C(F)(F)F [Compound 345, 5-[6-(2,4-Bis-trifluoromethyl-phenyl)-1-oxy-pyridin-3-ylmethyl]-2-(2,3-difluoro-phenyl)-5H-imidazo[4,5-d]pyridazine]",80
18,"COc1ccc(-c2ccc(Cn3cc4nc(-c5cccc(F)c5F)nc-4cn3)cc2C(=O)O)c(C(F)(F)F)c1 [Compound 346, 4-[2-(2,3-Difluoro-phenyl)-imidazo[4,5-d]pyridazin-5-ylmethyl]-4′-methoxy-2′-trifluoromethyl-biphenyl-2-carboxylic acid]",≥ 50000
19,"CCCCc1ccc(-c2ccc(Cn3cc4nc(-c5cccc(F)c5F)nc-4cn3)cn2)cc1C(F)(F)F [Compound 347, 5-[6-(4-Butyl-3-trifluoromethyl-phenyl)-pyridin-3-ylmethyl]-2-(2,3-difluoro-phenyl)-5H-imidazo[4,5-d]pyridazine]",2590
20,"COc1ccc(-c2ccc(Cn3cc4nc(-c5cccc(F)c5F)nc-4cn3)c(OCCCO)c2)c(C(F)(F)F)c1 [Compound 348, 3-{4-[2-(2,3-Difluoro-phenyl)-imidazo[4,5-d]pyridazin-5-ylmethyl]-4′-methoxy-2′-trifluoromethyl-biphenyl-3-yloxy}-propan-1-ol]",279
21,"COc1ccc(-c2ccc(Cn3cc4nc(-c5cccc(F)c5F)nc-4cn3)c(OCCCN3CCOCC3)c2)c(C(F)(F)F)c1 [Compound 349, 2-(2,3-Difluoro-phenyl)-5-[4′-methoxy-3-(3-morpholin-4-yl-propoxy)-2′-trifluoromethyl-biphenyl-4-ylmethyl]-5H-imidazo[4,5-d]pyridazine]",6260
22,"Oc1ccc(-c2ccc(Cn3cc4nc(-c5cccc(F)c5F)nc-4cn3)nn2)c(C(F)(F)F)c1 [Compound 350, 4-{6-[2-(2,3-Difluoro-phenyl)-imidazo[4,5-d]pyridazin-5-ylmethyl]-pyridazin-3-yl}-3-trifluoromethyl-phenol]",≥ 50000
23,"FCCCOc1ccc(-c2ccc(Cn3cc4nc(-c5cccc(F)c5F)nc-4cn3)nn2)c(C(F)(F)F)c1 [Compound 351, 2-(2,3-Difluoro-phenyl)-5-{6-[4-(3-fluoro-propoxy)-2-trifluoromethyl-phenyl]-pyridazin-3-ylmethyl}-5H-imidazo[4,5-d]pyridazine]",25
24,"FCCOc1ccc(-c2ccc(Cn3cc4nc(-c5cccc(F)c5F)nc-4cn3)nn2)c(C(F)(F)F)c1 [Compound 352, 2-(2,3-Difluoro-phenyl)-5-{6-[4-(2-fluoro-ethoxy)-2-trifluoromethyl-phenyl]-pyridazin-3-ylmethyl}-5H-imidazo[4,5-d]pyridazine]",22.8
25,"O=S(=O)(Oc1ccc(-c2ccc(Cn3cc4nc(-c5cccc(F)c5F)nc-4cn3)nn2)c(C(F)(F)F)c1)C(F)(F)F [Compound 353, Trifluoro-methanesulfonic acid 4-{6-[2-(2,3-difluoro-phenyl)-imidazo[4,5-d]pyridazin-5-ylmethyl]-pyridazin-3-yl}-3-trifluoromethyl-phenyl ester]",1190
26,"Fc1cccc(-c2nc3cnn(Cc4ccc(-c5ccc(-c6cccs6)cc5C(F)(F)F)nn4)cc-3n2)c1F [Compound 354, 2-(2,3-Difluoro-phenyl)-5-[6-(4-thiophen-2-yl-2-trifluoromethyl-phenyl)-pyridazin-3-ylmethyl]-5H-imidazo[4,5-d]pyridazine]",225
27,"Fc1cccc(-c2nc3cnn(Cc4ccc(N5CCOCC5)nn4)cc-3n2)c1F [Compound 355, 2-(2,3-Difluoro-phenyl)-5-(6-morpholin-4-yl-pyridazin-3-ylmethyl)-5H-imidazo[4,5-d]pyridazine]",≥ 50000
28,"COc1ccc(-c2ccc(Cn3cc4nc(-c5cccc(F)c5F)nc-4cn3)cc2N)c(C(F)(F)F)c1 [Compound 356, 4-[2-(2,3-Difluoro-phenyl)-imidazo[4,5-d]pyridazin-5-ylmethyl]-4′-methoxy-2′-trifluoromethyl-biphenyl-2-ylamine]",100
29,"CCCOc1ccc(-c2ccc(Cn3cc4nc(-c5cccc(F)c5F)nc-4cn3)cc2N)cc1 [Compound 357, 4-[2-(2,3-Difluoro-phenyl)-imidazo[4,5-d]pyridazin-5-ylmethyl]-4′-propoxy-biphenyl-2-ylamine]",≥ 50000
30,"COc1ccc(-c2ccc(Cn3cc4nc(-c5cccc(F)c5F)nc-4cn3)nc2N)c(C(F)(F)F)c1 [Compound 358, 6-[2-(2,3-Difluoro-phenyl)-imidazo[4,5-d]pyridazin-5-ylmethyl]-3-(4-methoxy-2-trifluoromethyl-phenyl)-pyridin-2-ylamine]",291
